Assay results reported in patent US9771379B2, “N-(2-(2-amino-6-substituted-4,4a,5,6-tetrahydropyrano[3,4-d][1,3]OXAZIN-8a(8H)-yl)-thiazol-4-yl) amides” (Pfizer Inc., priority 2015, dated 2017).

Target: full length human BACE1 (Homo sapiens (Human), UniProt P56817)
Test: BACE1 Scintillation Proximity Binding Assay (SPA)
Conditions: radioligand displacement, HEK cell membranes, pH 6.0
Description: BACE1 Scintillation Proximity Binding Assay (SPA): The BACE1 binding assay measured beta-site amyloid precursor protein-cleaving enzyme (BACE) binding as a decrease in the counts of radioligand bound in a scintillation proximity assay (SPA). […] Full length human BACE1 over-expressed in HEK cells was prepared by Pfizer scientists. Frozen stock cell paste was reacted in 50 mM sodium acetate buffer (pH=6.0) containing 3H-(4aR,6R,8aS)-8a-(2,4-difluorophenyl)-6-(1-methyl-1H-pyrazol-4-yl)-4,4a,5,6,8,8a-hexahydropyrano[3,4-d][1,3]thiazin-2-amine ligand, SPA bead and 60 μM to 600 pM of test compound in an assay volume of 27 uL. The compound plate also contained positive (BACE inhibitor) and negative (DMSO) control wells. The binding was carried out at room temperature for 30 minutes and then the plates were read on a TriLux Microbeta reader to determine the number of counts bound. The raw data was converted to percent effect compared to positive and negative control wells and the compound concentrations and % effect values for tested compounds were plotted to determine the 50% effect (1050) with a four-parameter logistic dose response equation.

Sequence of full length human BACE1 (P56817 46-501): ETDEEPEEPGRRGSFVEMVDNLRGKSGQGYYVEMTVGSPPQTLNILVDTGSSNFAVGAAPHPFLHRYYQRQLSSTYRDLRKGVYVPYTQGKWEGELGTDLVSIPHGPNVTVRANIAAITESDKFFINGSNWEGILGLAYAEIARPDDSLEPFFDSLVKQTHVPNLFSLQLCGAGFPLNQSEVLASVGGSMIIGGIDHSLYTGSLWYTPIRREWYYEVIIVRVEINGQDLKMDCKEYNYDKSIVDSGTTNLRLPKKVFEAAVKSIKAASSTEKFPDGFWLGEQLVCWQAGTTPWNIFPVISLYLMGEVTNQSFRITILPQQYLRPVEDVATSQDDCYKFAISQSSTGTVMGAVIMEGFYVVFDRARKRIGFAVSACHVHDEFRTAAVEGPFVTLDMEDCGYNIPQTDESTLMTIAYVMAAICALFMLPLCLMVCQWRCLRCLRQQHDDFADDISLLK

**Q.** How did the IC50 turn out when `Cc1nc(OC(F)F)cnc1C(=O)Nc1csc([C@]23CO[C@@H](C(F)(F)F)C[C@H]2COC(N)=N3)n1` [Example 22, N-{2-[(4aR,6R,8aR)-2-amino-6-(trifluoromethyl)-4,4a,5,6-tetrahydropyrano [3,4-d][1,3]oxazin-8a(8H)-yl]-1,3-thiazol-4-yl}-5-(difluoromethoxy)-3-methyl pyrazine-2-carboxamide] was run?
**A.** 13 nM

**Q.** Which IC50 does the source give for `COc1cnc(C(=O)Nc2csc([C@]34CO[C@@H](C(F)(F)F)C[C@H]3COC(N)=N4)n2)c(C)n1` [Example 23, N-{2-[(4aR,6R,8aR)-2-amino-6-(trifluoromethyl)-4,4a,5,6-tetrahydropyrano [3,4-d][1,3]oxazin-8a(8H)-yl]-1,3-thiazol-4-yl}-5-methoxy-3-methylpyrazine-2-carboxamide] here?
**A.** 162 nM

**Q.** How did the IC50 turn out when `NC1=N[C@@]2(c3nc(NC(=O)c4cnc(OC(F)F)cn4)cs3)CO[C@@H](C(F)(F)F)C[C@H]2CO1` [Example 20, N-{2-[(4aR,6R,8aR)-2-amino-6-(trifluoromethyl)-4,4a,5,6-tetrahydropyrano [3,4-d][1,3]oxazin-8a(8H)-yl]-1,3-thiazol-4-yl}-5-(difluoromethoxy)pyrazine-2-carboxamide] was run?
**A.** 124 nM
